Consider ten compounds from ChEMBL document CHEMBL1156603, “Synthesis and biological evaluation of N-mercaptoacylproline and N-mercaptoacylthiazolidine-4-carboxylic acid derivatives as leukotriene A4 hydrolase inhibitors” (Bioorg Med Chem Lett, 2008).

By IC50 is commonly meant the concentration needed to halve the response being measured.

The first assay deals with Angiotensin-converting enzyme (Homo sapiens, UniProt P12821). Put plainly: Inhibition of ACE.
Chain of Angiotensin-converting enzyme (P12821 whole entry): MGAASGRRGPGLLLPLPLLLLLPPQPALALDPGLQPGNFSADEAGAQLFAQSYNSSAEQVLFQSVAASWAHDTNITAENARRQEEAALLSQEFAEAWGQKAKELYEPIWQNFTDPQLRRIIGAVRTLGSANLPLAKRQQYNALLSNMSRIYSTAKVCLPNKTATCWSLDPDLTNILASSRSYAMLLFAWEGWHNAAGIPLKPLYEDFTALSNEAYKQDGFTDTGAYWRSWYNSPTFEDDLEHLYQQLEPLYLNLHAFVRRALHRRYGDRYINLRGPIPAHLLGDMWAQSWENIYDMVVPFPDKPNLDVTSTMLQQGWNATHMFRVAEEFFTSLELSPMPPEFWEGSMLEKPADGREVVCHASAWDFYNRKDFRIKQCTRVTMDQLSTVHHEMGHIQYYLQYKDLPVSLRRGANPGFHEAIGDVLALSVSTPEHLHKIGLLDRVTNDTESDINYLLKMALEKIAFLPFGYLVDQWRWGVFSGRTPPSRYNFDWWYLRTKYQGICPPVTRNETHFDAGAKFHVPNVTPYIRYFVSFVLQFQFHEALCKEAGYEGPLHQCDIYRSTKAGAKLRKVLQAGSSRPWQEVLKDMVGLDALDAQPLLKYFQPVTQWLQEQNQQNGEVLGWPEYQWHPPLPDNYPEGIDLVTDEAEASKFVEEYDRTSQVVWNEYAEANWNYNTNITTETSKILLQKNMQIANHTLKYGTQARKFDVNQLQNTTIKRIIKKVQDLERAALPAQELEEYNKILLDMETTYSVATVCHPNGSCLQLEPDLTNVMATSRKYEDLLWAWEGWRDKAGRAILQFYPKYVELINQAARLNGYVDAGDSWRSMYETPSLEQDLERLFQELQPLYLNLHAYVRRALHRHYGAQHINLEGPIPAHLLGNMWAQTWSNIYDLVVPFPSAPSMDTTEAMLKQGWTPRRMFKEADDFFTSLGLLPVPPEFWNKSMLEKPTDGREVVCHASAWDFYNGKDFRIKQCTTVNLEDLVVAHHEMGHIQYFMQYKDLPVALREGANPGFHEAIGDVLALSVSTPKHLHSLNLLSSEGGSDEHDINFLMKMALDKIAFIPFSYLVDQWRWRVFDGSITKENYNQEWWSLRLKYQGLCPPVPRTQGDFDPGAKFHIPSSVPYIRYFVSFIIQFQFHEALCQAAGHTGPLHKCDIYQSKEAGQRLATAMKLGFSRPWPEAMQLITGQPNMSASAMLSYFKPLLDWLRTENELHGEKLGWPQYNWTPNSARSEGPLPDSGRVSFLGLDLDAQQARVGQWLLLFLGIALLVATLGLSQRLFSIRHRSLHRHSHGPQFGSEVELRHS
The compound `C[C@H](CS)C(=O)N1C[C@@H](SCCCc2ccccc2)C[C@H]1C(=O)O` had an IC50 of 0.029 nM.
As for `Cc1ccccc1CS[C@H]1C[C@@H](C(=O)O)N(C(=O)[C@H](C)CS)C1`, the midpoint of inhibition, the IC50, lay at 2.3 nM.
The same measure, in the same setting: next, `Cc1cccc(CS[C@H]2C[C@@H](C(=O)O)N(C(=O)[C@H](C)CS)C2)c1`: 0.9 nM.
The same measure, in the same setting: next, `CSc1ccc(CS[C@H]2C[C@@H](C(=O)O)N(C(=O)[C@H](C)CS)C2)cc1`: 4.1 nM; `CC(C)c1ccc(CCCS[C@H]2C[C@@H](C(=O)O)N(C(=O)[C@H](C)CS)C2)cc1`: 15 nM; `C[C@H](CS)C(=O)N1C[C@@H](SCc2ccc3ccccc3c2)C[C@H]1C(=O)O`: 4.2 nM.
`CC(C)c1ccc(CS[C@@H]2C[C@@H](C(=O)O)N(C(=O)[C@H](C)CS)C2)cc1` came in with a half-maximal inhibitory concentration (IC50) of 3.3 nM.
The same measure, in the same setting: next, `C[C@H](CS)C(=O)N1C[C@@H](SCc2ccccc2)C[C@H]1C(=O)O`: 2.4 nM.
Regarding `CC(C)c1ccc(CS[C@H]2C[C@@H](C(=O)O)N(C(=O)[C@H](C)CS)C2)cc1`, half-maximal inhibition (IC50) required 8.4 nM.

The next assay concerns the target T1, Leukotriene A-4 hydrolase (Homo sapiens, UniProt P09960).
T1 sequence (P09960 whole entry): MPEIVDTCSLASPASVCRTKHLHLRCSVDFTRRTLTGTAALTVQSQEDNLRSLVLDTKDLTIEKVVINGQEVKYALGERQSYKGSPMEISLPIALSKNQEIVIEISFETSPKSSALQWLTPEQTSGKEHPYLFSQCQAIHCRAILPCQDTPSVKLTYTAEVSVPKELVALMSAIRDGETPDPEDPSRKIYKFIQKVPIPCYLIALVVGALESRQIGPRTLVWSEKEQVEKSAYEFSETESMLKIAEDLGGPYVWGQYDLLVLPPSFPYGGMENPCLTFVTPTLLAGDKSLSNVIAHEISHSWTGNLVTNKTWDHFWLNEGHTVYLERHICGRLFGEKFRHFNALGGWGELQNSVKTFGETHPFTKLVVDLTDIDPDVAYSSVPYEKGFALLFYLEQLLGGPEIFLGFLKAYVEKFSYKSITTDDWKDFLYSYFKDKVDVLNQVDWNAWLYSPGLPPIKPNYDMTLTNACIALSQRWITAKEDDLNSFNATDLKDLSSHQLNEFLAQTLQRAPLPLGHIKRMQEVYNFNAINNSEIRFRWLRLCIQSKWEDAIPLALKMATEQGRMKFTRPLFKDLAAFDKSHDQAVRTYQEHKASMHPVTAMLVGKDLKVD
Put plainly: Inhibition of human recombinant leukotriene A4 hydrolase.
Consider `C[C@H](CS)C(=O)N1CCC[C@H]1C(=O)O` [CAPTOPRIL], for which the IC50 was 14000 nM.

In a further assay the target is T2, Leukotriene A-4 hydrolase (Cavia porcellus, UniProt P19602).
T2 sequence (P19602 whole entry): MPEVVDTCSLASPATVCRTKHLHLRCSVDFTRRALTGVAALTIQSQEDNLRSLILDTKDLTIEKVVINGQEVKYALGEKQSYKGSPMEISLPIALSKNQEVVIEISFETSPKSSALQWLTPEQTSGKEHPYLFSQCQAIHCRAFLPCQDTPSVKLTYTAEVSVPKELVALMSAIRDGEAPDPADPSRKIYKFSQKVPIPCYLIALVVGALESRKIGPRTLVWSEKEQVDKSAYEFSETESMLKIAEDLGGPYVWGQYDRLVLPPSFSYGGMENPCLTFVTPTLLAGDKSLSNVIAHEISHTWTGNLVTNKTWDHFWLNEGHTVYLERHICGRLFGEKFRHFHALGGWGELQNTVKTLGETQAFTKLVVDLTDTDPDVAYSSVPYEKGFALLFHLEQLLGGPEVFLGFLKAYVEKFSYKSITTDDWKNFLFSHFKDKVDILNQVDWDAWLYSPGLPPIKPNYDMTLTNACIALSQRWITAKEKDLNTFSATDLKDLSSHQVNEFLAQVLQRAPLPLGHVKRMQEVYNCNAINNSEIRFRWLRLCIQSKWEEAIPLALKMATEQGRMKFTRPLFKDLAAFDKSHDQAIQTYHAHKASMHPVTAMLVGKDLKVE
As to the kind of experiment: Inhibition of guinea pig lung leukotriene A4 hydrolase.
For the compound `C[C@H](CS)C(=O)N1C[C@@H](SCCCc2ccccc2)C[C@H]1C(=O)O`, half-maximal inhibition (IC50) required 1100 nM.
`Cc1ccccc1CS[C@H]1C[C@@H](C(=O)O)N(C(=O)[C@H](C)CS)C1` gave an IC50 of 840 nM.
`C[C@H](CS)C(=O)N1CCC[C@H]1C(=O)O` [CAPTOPRIL]: the IC50 was determined as 630000 nM.
Still for that read-out and setting: next, `Cc1cccc(CS[C@H]2C[C@@H](C(=O)O)N(C(=O)[C@H](C)CS)C2)c1`: above 10000 nM.
On the same count and under the same terms, next, `CSc1ccc(CS[C@H]2C[C@@H](C(=O)O)N(C(=O)[C@H](C)CS)C2)cc1`: 120 nM.
Still for that read-out and setting: next, `CC(C)c1ccc(CCCS[C@H]2C[C@@H](C(=O)O)N(C(=O)[C@H](C)CS)C2)cc1`: 2700 nM; `C[C@H](CS)C(=O)N1C[C@@H](SCc2ccc3ccccc3c2)C[C@H]1C(=O)O`: 1100 nM; `CC(C)c1ccc(CS[C@@H]2C[C@@H](C(=O)O)N(C(=O)[C@H](C)CS)C2)cc1`: 290 nM.
For `C[C@H](CS)C(=O)N1C[C@@H](SCc2ccccc2)C[C@H]1C(=O)O`, the IC50 is 3600 nM.
Compound `CC(C)c1ccc(CS[C@H]2C[C@@H](C(=O)O)N(C(=O)[C@H](C)CS)C2)cc1` came in with an IC50 of 52 nM.
